Results taken from patent US12565522B2, “Micropeptide HMMW and application thereof” (NANJING ANJI BIOTECHNOLOGY CO., LTD., priority 2019, dated 2026).
No end group written: not given here.

Legend:
Assay type in all cases: cell-based, human
Conditions in all cases: 24 h
[1] = system: A431 cells of skin cancer; assay: transwell migration test
[2] = system: A549 cells of lung cancer; assay: transwell migration test
[3] = system: MDA-MB-231 cells of breast cancer; assay: transwell migration test
[4] = system: MGC803 cells of stomach cancer; assay: transwell migration test
[5] = system: SCC4 cells of head and neck cancer; assay: transwell migration test
[6] = system: SW579 cells of thyroid cancer; assay: transwell migration test
[7] = system: UOK262 cells of kidney cancer; assay: transwell migration test
[8] = system: A431 cells of skin cancer; assay: Matrigel transwell invasion test
Method: (§1) Dilute 10 mg/mL Matrigel with culture medium at 1:3, spread it on membranes of transwell cells and dry it in the air at room temperature. Use trypsin to digest and collect SCC4 cells of head and neck cancer, SW579 cells of thyroid cancer, A549 cells of lung cancer, TE13 cells of esophageal squamous cell carcinoma, MGC803 cells of stomach cancer, MDA-MB-231 cells of breast cancer, UOK262 cells of kidney cancer, and A431 cells of skin cancer of human, which were cultured to the logarithmic phase, wash with PBS twice and re-suspend with a blank culture medium. Adjust cell concentration to 1×10^5 cells/mL. Inoculate the cells to transwell cells, 100 μL per well, and meanwhile add micropeptides HMMW I to IX at different doses to every cell. Add 0.6 mL of complete medium containing 10% FBS to the transwell cells to stimulate cell invasion, and culture in 5% CO2 at 37 DEG C. for 24 h. Discard the medium in the wells, fix with 90% alcohol at room temperature for 30 min, stain with 0.1% crystal violet at room temperature for 10 min, rinse with clear water, gently wipe off the non-invaded cells in the upper layer with a cotton swab, observe under a microscope and select four fields of view to take pictures and count. Calculate the invasion inhibition rate (IIR) of the cells according to the following formula:
(§2) [formula] where Ntest is the number of invaded cells in the test groups (the groups at a dose of 1, 4 or 16 μM in the table), Ncontrol is the number of invaded cells in the blank control groups (the groups at a dose of 0 μM in the table). The test was repeated independently three times. Mean±SD was calculated based on the test results. Statistical t test was done. Value P was used to express statistical difference. The statistical significance of the results is a method for estimating how true the results are (the totality can be represented), *P<0.05 means significant difference, and **P<0.01 means very significant difference.

[9] = system: A549 cells of lung cancer; assay: Matrigel transwell invasion test
Method: as §1, §2

[10] = system: MDA-MB-231 cells of breast cancer; assay: Matrigel transwell invasion test
Method: as §1, §2

[11] = system: MGC803 cells of stomach cancer; assay: Matrigel transwell invasion test
Method: as §1, §2

[12] = system: SCC4 cells of head and neck cancer; assay: Matrigel transwell invasion test
Method: as §1, §2

[13] = system: SW579 cells of thyroid cancer; assay: Matrigel transwell invasion test
Method: as §1, §2

[14] = system: TE13 cells of esophageal squamous cell carcinoma; assay: Matrigel transwell invasion test
Method: as §1, §2

[15] = system: UOK262 cells of kidney cancer; assay: Matrigel transwell invasion test
Method: as §1, §2

## MERAGVPGFSPRRSSVEAKMQSTSCSVRKSSTVTAWPAVVLLLSWGQRDEE-OH [HMMW-VI]
[1]; dose 1 μM
  migration inhibition rate: 33.19%
[1]; dose 4 μM
  migration inhibition rate: 55.17%
[1]; dose 16 μM
  migration inhibition rate: 70.23%
[2]; dose 1 μM
  migration inhibition rate: 32.00%
[2]; dose 4 μM
  migration inhibition rate: 51.90%
[2]; dose 16 μM
  migration inhibition rate: 70.46%
[3]; dose 1 μM
  migration inhibition rate: 27.06%
[3]; dose 4 μM
  migration inhibition rate: 50.34%
[3]; dose 16 μM
  migration inhibition rate: 74.38%
[4]; dose 1 μM
  migration inhibition rate: 26.64%
[4]; dose 4 μM
  migration inhibition rate: 51.45%
[4]; dose 16 μM
  migration inhibition rate: 72.80%
[5]; dose 1 μM
  migration inhibition rate: 16.69%
[5]; dose 4 μM
  migration inhibition rate: 42.81%
[5]; dose 16 μM
  migration inhibition rate: 71.04%
[6]; dose 1 μM
  migration inhibition rate: 19.81%
[6]; dose 4 μM
  migration inhibition rate: 52.03%
[6]; dose 16 μM
  migration inhibition rate: 70.91%
[7]; dose 1 μM
  migration inhibition rate: 17.32%
[7]; dose 4 μM
  migration inhibition rate: 40.38%
[7]; dose 16 μM
  migration inhibition rate: 72.47%
[8]; dose 1 μM
  invasion inhibition rate: 36.83%
[8]; dose 4 μM
  invasion inhibition rate: 57.35%
[8]; dose 16 μM
  invasion inhibition rate: 71.16%
[9]; dose 1 μM
  invasion inhibition rate: 34.15%
[9]; dose 4 μM
  invasion inhibition rate: 56.32%
[9]; dose 16 μM
  invasion inhibition rate: 65.35%
[10]; dose 1 μM
  invasion inhibition rate: 24.83%
[10]; dose 4 μM
  invasion inhibition rate: 46.57%
[10]; dose 16 μM
  invasion inhibition rate: 71.43%
[11]; dose 1 μM
  invasion inhibition rate: 23.42%
[11]; dose 4 μM
  invasion inhibition rate: 54.19%
[11]; dose 16 μM
  invasion inhibition rate: 63.35%
[12]; dose 1 μM
  invasion inhibition rate: 22.83%
[12]; dose 4 μM
  invasion inhibition rate: 47.82%
[12]; dose 16 μM
  invasion inhibition rate: 74.16%
[13]; dose 1 μM
  invasion inhibition rate: 23.29%
[13]; dose 4 μM
  invasion inhibition rate: 46.63%
[13]; dose 16 μM
  invasion inhibition rate: 67.58%
[14]; dose 1 μM
  invasion inhibition rate: 22.25%
[14]; dose 4 μM
  invasion inhibition rate: 42.39%
[14]; dose 16 μM
  invasion inhibition rate: 67.47%
[15]; dose 1 μM
  invasion inhibition rate: 38.15%
[15]; dose 4 μM
  invasion inhibition rate: 58.28%
[15]; dose 16 μM
  invasion inhibition rate: 67.51%

## MERAGVPGFSPRRSSVEAKMQSTSCSVRKSSTVTAWPAVVLLLSWGQRRGE-OH [HMMW-VIII]
[1]; dose 1 μM
  migration inhibition rate: 33.10%
[1]; dose 4 μM
  migration inhibition rate: 53.37%
[1]; dose 16 μM
  migration inhibition rate: 71.20%
[2]; dose 1 μM
  migration inhibition rate: 32.06%
[2]; dose 4 μM
  migration inhibition rate: 51.90%
[2]; dose 16 μM
  migration inhibition rate: 73.40%
[3]; dose 1 μM
  migration inhibition rate: 26.14%
[3]; dose 4 μM
  migration inhibition rate: 50.24%
[3]; dose 16 μM
  migration inhibition rate: 73.32%
[4]; dose 1 μM
  migration inhibition rate: 24.60%
[4]; dose 4 μM
  migration inhibition rate: 53.43%
[4]; dose 16 μM
  migration inhibition rate: 73.81%
[5]; dose 1 μM
  migration inhibition rate: 17.80%
[5]; dose 4 μM
  migration inhibition rate: 42.92%
[5]; dose 16 μM
  migration inhibition rate: 72.35%
[6]; dose 1 μM
  migration inhibition rate: 18.81%
[6]; dose 4 μM
  migration inhibition rate: 52.05%
[6]; dose 16 μM
  migration inhibition rate: 70.90%
[7]; dose 1 μM
  migration inhibition rate: 18.29%
[7]; dose 4 μM
  migration inhibition rate: 43.48%
[7]; dose 16 μM
  migration inhibition rate: 71.45%
[8]; dose 1 μM
  invasion inhibition rate: 34.50%
[8]; dose 4 μM
  invasion inhibition rate: 55.11%
[8]; dose 16 μM
  invasion inhibition rate: 69.43%
[9]; dose 1 μM
  invasion inhibition rate: 34.03%
[9]; dose 4 μM
  invasion inhibition rate: 55.20%
[9]; dose 16 μM
  invasion inhibition rate: 68.03%
[10]; dose 1 μM
  invasion inhibition rate: 27.90%
[10]; dose 4 μM
  invasion inhibition rate: 45.81%
[10]; dose 16 μM
  invasion inhibition rate: 64.26%
[11]; dose 1 μM
  invasion inhibition rate: 26.01%
[11]; dose 4 μM
  invasion inhibition rate: 57.18%
[11]; dose 16 μM
  invasion inhibition rate: 70.60%
[12]; dose 1 μM
  invasion inhibition rate: 23.71%
[12]; dose 4 μM
  invasion inhibition rate: 49.14%
[12]; dose 16 μM
  invasion inhibition rate: 76.64%
[13]; dose 1 μM
  invasion inhibition rate: 19.61%
[13]; dose 4 μM
  invasion inhibition rate: 43.56%
[13]; dose 16 μM
  invasion inhibition rate: 64.79%
[14]; dose 1 μM
  invasion inhibition rate: 24.21%
[14]; dose 4 μM
  invasion inhibition rate: 42.31%
[14]; dose 16 μM
  invasion inhibition rate: 61.51%
[15]; dose 1 μM
  invasion inhibition rate: 35.27%
[15]; dose 4 μM
  invasion inhibition rate: 54.14%
[15]; dose 16 μM
  invasion inhibition rate: 68.21%

## MERAGVPGFSPRRSSVEAKMQSTSCSVRKSSTVTAWPAVVLLLSWGQRRGG-OH [HMMW-I]
[1]; dose 1 μM
  migration inhibition rate: 33.19%
[1]; dose 4 μM
  migration inhibition rate: 55.17%
[1]; dose 16 μM
  migration inhibition rate: 73.22%
[2]; dose 1 μM
  migration inhibition rate: 35.00%
[2]; dose 4 μM
  migration inhibition rate: 53.95%
[2]; dose 16 μM
  migration inhibition rate: 73.46%
[3]; dose 1 μM
  migration inhibition rate: 28.06%
[3]; dose 4 μM
  migration inhibition rate: 50.34%
[3]; dose 16 μM
  migration inhibition rate: 75.38%
[4]; dose 1 μM
  migration inhibition rate: 27.61%
[4]; dose 4 μM
  migration inhibition rate: 53.45%
[4]; dose 16 μM
  migration inhibition rate: 76.80%
[5]; dose 1 μM
  migration inhibition rate: 17.85%
[5]; dose 4 μM
  migration inhibition rate: 42.97%
[5]; dose 16 μM
  migration inhibition rate: 77.00%
[6]; dose 1 μM
  migration inhibition rate: 19.81%
[6]; dose 4 μM
  migration inhibition rate: 51.03%
[6]; dose 16 μM
  migration inhibition rate: 70.98%
[7]; dose 1 μM
  migration inhibition rate: 15.39%
[7]; dose 4 μM
  migration inhibition rate: 42.38%
[7]; dose 16 μM
  migration inhibition rate: 71.47%
[8]; dose 1 μM
  invasion inhibition rate: 32.74%
[8]; dose 4 μM
  invasion inhibition rate: 51.22%
[8]; dose 16 μM
  invasion inhibition rate: 69.37%
[9]; dose 1 μM
  invasion inhibition rate: 31.23%
[9]; dose 4 μM
  invasion inhibition rate: 51.32%
[9]; dose 16 μM
  invasion inhibition rate: 64.08%
[10]; dose 1 μM
  invasion inhibition rate: 27.97%
[10]; dose 4 μM
  invasion inhibition rate: 48.95%
[10]; dose 16 μM
  invasion inhibition rate: 70.49%
[11]; dose 1 μM
  invasion inhibition rate: 26.12%
[11]; dose 4 μM
  invasion inhibition rate: 50.08%
[11]; dose 16 μM
  invasion inhibition rate: 68.62%
[12]; dose 1 μM
  invasion inhibition rate: 20.75%
[12]; dose 4 μM
  invasion inhibition rate: 46.24%
[12]; dose 16 μM
  invasion inhibition rate: 74.84%
[13]; dose 1 μM
  invasion inhibition rate: 19.63%
[13]; dose 4 μM
  invasion inhibition rate: 44.76%
[13]; dose 16 μM
  invasion inhibition rate: 64.89%
[14]; dose 1 μM
  invasion inhibition rate: 20.43%
[14]; dose 4 μM
  invasion inhibition rate: 42.86%
[14]; dose 16 μM
  invasion inhibition rate: 66.51%
[15]; dose 1 μM
  invasion inhibition rate: 33.80%
[15]; dose 4 μM
  invasion inhibition rate: 53.12%
[15]; dose 16 μM
  invasion inhibition rate: 66.67%

## MGRAGVPGFSPRRSSVEAKMQSTSCSVRKSSTVTAWPAVVLLLSWGQRRGG-OH [HMMW-IX]
[1]; dose 1 μM
  migration inhibition rate: 33.19%
[1]; dose 4 μM
  migration inhibition rate: 55.17%
[1]; dose 16 μM
  migration inhibition rate: 73.22%
[2]; dose 1 μM
  migration inhibition rate: 36.00%
[2]; dose 4 μM
  migration inhibition rate: 52.95%
[2]; dose 16 μM
  migration inhibition rate: 71.46%
[3]; dose 1 μM
  migration inhibition rate: 26.06%
[3]; dose 4 μM
  migration inhibition rate: 52.34%
[3]; dose 16 μM
  migration inhibition rate: 73.38%
[4]; dose 1 μM
  migration inhibition rate: 25.61%
[4]; dose 4 μM
  migration inhibition rate: 51.45%
[4]; dose 16 μM
  migration inhibition rate: 74.80%
[5]; dose 1 μM
  migration inhibition rate: 18.81%
[5]; dose 4 μM
  migration inhibition rate: 43.97%
[5]; dose 16 μM
  migration inhibition rate: 74.00%
[6]; dose 1 μM
  migration inhibition rate: 17.81%
[6]; dose 4 μM
  migration inhibition rate: 50.03%
[6]; dose 16 μM
  migration inhibition rate: 71.98%
[7]; dose 1 μM
  migration inhibition rate: 17.39%
[7]; dose 4 μM
  migration inhibition rate: 43.38%
[7]; dose 16 μM
  migration inhibition rate: 70.47%
[8]; dose 1 μM
  invasion inhibition rate: 34.83%
[8]; dose 4 μM
  invasion inhibition rate: 54.35%
[8]; dose 16 μM
  invasion inhibition rate: 74.16%
[9]; dose 1 μM
  invasion inhibition rate: 30.15%
[9]; dose 4 μM
  invasion inhibition rate: 60.32%
[9]; dose 16 μM
  invasion inhibition rate: 70.35%
[10]; dose 1 μM
  invasion inhibition rate: 27.83%
[10]; dose 4 μM
  invasion inhibition rate: 49.57%
[10]; dose 16 μM
  invasion inhibition rate: 75.43%
[11]; dose 1 μM
  invasion inhibition rate: 26.42%
[11]; dose 4 μM
  invasion inhibition rate: 57.19%
[11]; dose 16 μM
  invasion inhibition rate: 68.35%
[12]; dose 1 μM
  invasion inhibition rate: 24.83%
[12]; dose 4 μM
  invasion inhibition rate: 48.82%
[12]; dose 16 μM
  invasion inhibition rate: 75.16%
[13]; dose 1 μM
  invasion inhibition rate: 25.21%
[13]; dose 4 μM
  invasion inhibition rate: 48.60%
[13]; dose 16 μM
  invasion inhibition rate: 62.48%
[14]; dose 1 μM
  invasion inhibition rate: 21.25%
[14]; dose 4 μM
  invasion inhibition rate: 40.39%
[14]; dose 16 μM
  invasion inhibition rate: 65.47%
[15]; dose 1 μM
  invasion inhibition rate: 39.15%
[15]; dose 4 μM
  invasion inhibition rate: 59.28%
[15]; dose 16 μM
  invasion inhibition rate: 69.51%
